In assay [1] the test system is C57BL/6 mice. In words: DSS-induced acute colitis. Conditions: oral 20 mg/kg on day 4 and 6. Format: in vivo, mouse. The procedure:
DSS-induced colitis: Acute experimental colitis in mice was induced by giving 3% (w/v) colitis grade DSS (MP Biomedicals) in drinking water for 7 days. Control animal received drinking water without DSS. All colitis group mice were randomly divided into three groups viz. vehicle treated (0.25% Na-CMC), UroA (20 mg/kg/day) and UAS03 (20 mg/kg/day) on the 4th and 6th day of DSS treatment. After 7 days, animals were put back on regular water for a period of 7 days. For chronic DSS colitis model, we used three cycles of 2.0% (w/v) DSS and each DSS cycle consisted or 7 days followed by 10 days of regular water and mice were treated with UroA (20 mg/kg/day) on every 4th and 6th day of DSS cycle.
Assessment of colitis severity and tissue collection: Mice were evaluated daily for change in body weight, stool consistency and rectal bleeding and score was given and combined to obtained disease activity index (MURTHY et al., (1993) “Treatment of dextran sulfate sodium-induced murine colitis by intracolonic cyclosporin” Dig Dis Sci, Vol. 38, pp. 1722-1734). After euthanasia, the colon was removed and flushed with PBS containing (1 mM PMSF and 0.2 mM sodium orthovanadate). Colon length and colon weight were measured and small parts of colon were excised for myeloperoxidase (MPO) activity and RNA isolation. Tissues for MPO and RNA extraction were snap frozen in liquid nitrogen and stored in −80° C. until further analysis. Tissue for histological examination was stored in 10% phosphate buffered saline formalin. Blood was collected and serum was separated by centrifugation at 3500×g for 15 min. Serum cytokines (IL-6, TNF-α; Biolegend) and chemokines (CXCL1; R&D Systems) levels were measured by ELISA according to manufacturer's instructions.
In vivo intestinal permeability assay: The gut barrier function was evaluated by in vivo intestinal permeability using FITC-Dextran (MW 4000; FD4, Sigma-Aldrich, USA) (FURUTA et al., (2001) “Hypoxia-inducible factor 1-dependent induction of intestinal trefoil factor protects barrier function during hypoxia” J Exp Med, Vol. 193, pp. 1027-1034). Briefly, mice were orally administered with FITC-dextran (60 mg/100 gm body weight). Mice were fasted for 4 h prior to euthanization. The FITC-dextran concentration in serum was determined using the standard curve of FITC-dextran in serum (excitation, 485 nm; emission, 525 nm; BMG LABTECH).

Assay [2] concerns C57BL/6, Nrf2^−/− and AhR^−/− mice. In words: Colon protein/mRNA expression after 7 days of oral treatment. Conditions: for AhR expression in colons of treated mice / Nrf2 and HO1 in the colons of wild type mice / expression of Cldn4 in the colons of mice: oral 20 mg/kg daily, 7 days; for Nrf2 and tight junction proteins (Cldn4, NQO1, Ocln, ZO1 and TJP3) in WT mice / Nrf2 and tight junction proteins in Nrf2^−/− and AhR^−/− mice: orally 20 mg/kg daily, seven days. In kind it is in vivo, mouse. As for the experimental part: Immunoblots (Western blots): The total protein lysates were collected either from colon tissue/cells using radioimmunoprecipitation assay (RIPA) buffer (Sigma-Aldrich, USA) and quantified using BCA protein quantification kit (Thermo Scientific) as per instructional manual. Total protein (20-50 μg) of was resolved on NuPAGE™ 4-12% Bis-Tris gel (Novex Life technologies) and transferred to polyvinylidene difluoride membrane (0.22 μm pore; Millipore, USA). After blocking with 5% (w/v) skim milk powder (containing 1×TBS) for 1 h, the membrane was then incubated with respective antibodies at 4° C. overnight (dilutions of respective antibodies is given in Table A1). Next day, respective secondary antibody conjugated with Horseradish peroxidase were probed and the chemiluminescent substrate was used to detect the protein bands (ImageQuant LAS 4000). Densitometry analysis of bands were done using ImageJ software. Antibodies for Cldn4, Ocln, Cldn1, Cyp1A1, AhR, HO1, NQO1, Keap1, β-actin and Lamin B were purchased from Santa Cruz Biotechnologies (USA) and Nrf2 from Novus Biologicals (USA).
Tissue processing for RNA and protein analysis: Mice were treated with as described in results section. Mice were euthanized with CO2 asphyxiation followed by cervical dislocation. Colon was dissected out and luminal contents were flushed out with cold PBS (containing PMSF and Sodium orthvandate). Small portion of colon was snap frozen in liquid nitrogen and stored at −80° C. for RNA analysis. For preparation of protein samples, colon was opened longitudinally and mucosa was scraped in ice-cold 1×PBS using pre-chilled glass slide and centrifuged at 300×g for 10 min at 4° C. Supernatant was discarded and pellet was suspended in RIPA buffer (containing 1× protease inhibitor) and vortexed at high speed. After 30 min incubation on ice, samples were centrifuged at 13,000×g for 20 min at 4° C. Supernatant was collected and protein was quantified using BCA protein quantification kit. The lysates were used appropriately for Western blots.

Assay [3] deals with Caco-2 monolayer cells. Nature of the assay: Caco2 monolayer TEER and FITC-dextran permeability (EtOH, LPS, HMGB1). In kind it is cell-based, human. Conditions: for TEER / Ocln expression: EtOH 350 mM (2%); for TEER: 10, 25, 50 μM pre-treatment 24 h; for Ocln expression: 10, 25, 50 μM, 24 h. The procedure:
FIG. 13: Caco2 cells were grown as monolayer on transwell membrane filters. (A) Cells were treated with 40 mM EtOH and FITC-dextran permeability was performed in time dependent manner. (B-F) Cells were treated with respective Urolithins (50 μM) and Ellagic acid (50 μM) or different doses of UroA (B) for 24 hrs. After treatments, cells were treated with ethanol (40 mM) (B, D) or 400 mM (E, F), LPS (100 ng/mL), HMGB1 (500 ng/mL) for 2 hrs and washed with PBS. FITC-Dex (1 mg/mL) solution was added (100 μl) on apical side. Permeability of FITC-Dex across the monolayer as well as TEER values were measured after 2 hr. […] Confocal images of TJ proteins staining. Statistics performed using unpaired t-test. *p<0.05, **p<0.01, *** p<0.001, Error bars, ±SEM.
Caco2 cells on transwell membrane were pre-treated with vehicle or UroA or UAS03 (10, 25, 50 μM) for 24 h followed by addition of alcohol (2%) for 24 h. TEER values (A) and the FITC-dextran permeability assay (B) was performed as described in FIG. 2. Statistics performed using unpaired t-test using Graphpad Prism software. Error bars, ±SEM; ***p<0.001; **p<0.01. (C) Caco2 cells were treated with alcohol (EtOH) (350 mM or 2%) in the presence or with UroA or UAS03 (10, 25, 50 μM) for 24 h and determined expression of Ocln by Western blots. Representative of 3 independent blots was shown.
UroA upregulate TJ proteins and protect against EtOH induced damage. […] For this purpose, we utilized Caco-2 monolayer cells on transwell membranes and performed transepithelial electrical resistance (TEER) and FITC-dextran permeability assays. […] Gut barrier dysfunction leads to elevated intestinal permeability thus increasing circulating levels of endotoxins. Endotoxins such as LPS (representative for PAMP) and HMGB1 (representative for DAMP) induce several inflammatory cytokines, chemokines and ROS leading to further enhancement of systemic inflammation to promote pathogenesis of ALD.
We tested whether UAS03 could protect against higher dose of EtOH (350 mM) induced barrier dysfunction in Caco2 monolayer cells.
In general terms: Passage across Caco-2 layers is used to estimate intestinal permeability.

Turning to `Oc1ccc2c(c1)COc1cc(O)ccc1-2` [UAS03, 6H-benzo[c]chromene-3,8-diol], in assay [1], the “3% DSS induced acute colitis” value is “protected from 3% DSS induced acute colitis” and the “DAI scores during disease progression” value is listed as “overall decreased DAI scores”. Also, in assay [2], the “AhR expression in colons of treated mice” value is listed as “upregulated”; the “Nrf2 and HO1 in the colons of wild type mice” value is “upregulated”; the “expression of Cldn4 in the colons of mice” value is recorded as “elevated expression”; the “Nrf2 and tight junction proteins (Cldn4, NQO1, Ocln, ZO1 and TJP3) in WT mice” value is given as “upregulated”. In addition, the “Nrf2 and tight junction proteins in Nrf2^−/− and AhR^−/− mice” value in assay [2] is reported as “did not appear to induce”. In addition, in assay [3], the TEER result is given as “increased TEER” and the Ocln expression entry was “increased TJ protein”.
Consider `O=c1oc2cc(O)ccc2c2ccc(O)cc12` [UroA, 3,8-dihydroxy-6H-dibenzo[b,d]pyran-6-one], for which, in assay [1], the “3% DSS induced acute colitis” value is “protected from 3% DSS induced acute colitis” and the “DAI scores during disease progression” value is “overall decreased DAI scores”. Also, in assay [2], the “AhR expression in colons of treated mice” value was “upregulated”; the “Nrf2 and HO1 in the colons of wild type mice” value is listed as “upregulated”; the “expression of Cldn4 in the colons of mice” value is given as “elevated expression”; the “Nrf2 and tight junction proteins (Cldn4, NQO1, Ocln, ZO1 and TJP3) in WT mice” value is “upregulated”. The “Nrf2 and tight junction proteins in Nrf2^−/− and AhR^−/− mice” value in assay [2] is given as “did not appear to induce”. Also, in assay [3], the TEER result was “increased TEER” and the Ocln expression entry is listed as “increased TJ protein”. In assay [3] (EtOH 400 mM), the TEER values result is reported as “enhanced TEER values”. The “EtOH induced damage of tight junction proteins (ZO-1, Ocln)” value in assay [3] (Western blots, confocal images) is “protects against EtOH induced damage of tight junction proteins”.
